Results published in BigSolDB 2.1.

NC(=O)C[C@H](N)C(=O)O.O
solubility (mole fraction)
Settings	278.15 K	283.15 K	288.15 K	293.15 K	298.15 K	303.15 K	308.15 K	313.15 K	318.15 K	323.15 K
in acetonitrile	5.98e-06	8.11e-06	1.09e-05	1.44e-05	1.89e-05	2.49e-05	3.2e-05	4.11e-05	5.24e-05	6.64e-05
in ethanol	1.32e-05	1.77e-05	2.36e-05	3.11e-05	4.06e-05	5.25e-05	6.73e-05	8.57e-05	0.000108	0.000136
in ethyl acetate	1.25e-05	1.73e-05	2.29e-05	2.99e-05	3.89e-05	5.01e-05	6.39e-05	8.21e-05	0.000102	0.000129
in isobutanol	1.11e-05	1.49e-05	1.97e-05	2.59e-05	3.38e-05	4.36e-05	5.58e-05	6.98e-05	8.97e-05	0.000114
in isopropanol	9.67e-06	1.26e-05	1.65e-05	2.22e-05	2.91e-05	3.81e-05	4.96e-05	6.19e-05	8.17e-05	0.000104
in methanol	1.54e-05	2.04e-05	2.7e-05	3.52e-05	4.56e-05	5.86e-05	7.42e-05	9.4e-05	0.000118	0.000147
in methyl acetate	1.66e-05	2.23e-05	2.91e-05	3.78e-05	4.89e-05	6.28e-05	7.98e-05	0.000101	0.000127	0.000158
in n-butanol	1.07e-05	1.43e-05	1.9e-05	2.5e-05	3.26e-05	4.2e-05	5.38e-05	6.84e-05	8.62e-05	0.000105
in n-butyl acetate	1.57e-05	2.09e-05	2.7e-05	3.49e-05	4.54e-05	5.76e-05	7.24e-05	9.16e-05	0.000114	0.000142
in n-propanol	1.07e-05	1.45e-05	1.94e-05	2.57e-05	3.37e-05	4.4e-05	5.68e-05	7.28e-05	9.28e-05	0.000117
in n-propyl acetate	1.63e-05	2.14e-05	2.81e-05	3.66e-05	4.76e-05	6.11e-05	7.78e-05	9.84e-05	0.000121	0.000154
in water	0.0014	0.00178	0.00227	0.0028	0.00344	0.00422	0.00518	0.00627	0.0076	0.00914
